Test: stability in solution of the free hydroxamic acid (observed during purification)
Assay type: physicochemical
Conditions: degradation during lengthy column elution and solvent evaporation on pilot scale
Text: The purity of hydroxycarbamoylpiperazine of formula VIII obtained after part (i) ranged from 84% to 92%. The observed yields were between 63% and 78%. This hydroxycarbamoylpiperazine was of insufficient purity to produce pure magnesium salt/complex of formula VI suitable for pharmaceutical use. The direct conversion of hydroxycarbamoylpiperazine of formula VIII to the magnesium salt/complex of formula VI by omitting parts (ii) and (iii) yielded the magnesium salt/complex with the purity ranging from 96% to 97%. We discovered that this problem could be solved by first obtaining and separating a benzhydrylpiperazine complex of formula IX prior to the conversion to the magnesium salt/complex of […]. Yields for the process that included parts (i)-(iv) ranged from 81% to 86%. The purity of the magnesium salt/complex of […] was at least 99%; specifically, between 99.4% and 99.7%.

SMILES: COCCOC(=O)N1CCN(S(=O)(=O)c2cc(F)c(Oc3ccc(Cl)cc3)c(F)c2)[C@@H](C(=O)NO)C1 [formula VIII, 4-(4-(4-chlorophenoxy)-3,5-difluorophenylsulfonyl)-3-(hydroxycarbamoyl)piperazine-1-carboxylic acid, (R)-2-methoxyethyl ester]
- stability in solution: poor stability in solution

Source: patent US8426415B2, “Human ADAM-10 inhibitors” (Symphony Evolution, Inc., priority 2007, dated 2013)
